# Laboratory results published in ChEMBL document CHEMBL1122681, “(Acylaryloxy)acetic acid diuretics. 5. [(2-Alkyl- and 2,2-disubstituted-1,3-dioxo-5-indanyl)oxy]acetic acids” (J Med Chem, 1984).
# Tests used:
# [1] = tested on: Pan troglodytes; experiment: Compound was evaluated for diuretic activity in chimpanzee measured as clearance of […] and urate after peroral administration of 5 mg/kg; format: functional, Urine; details: route oral
# [2] = tested on: Rattus norvegicus; experiment: Compound was evaluated for diuretic activity administered orally in female rats measured as milliequivalents of K+x 100 / cage at 3 mg/kg; format: functional, Urine; details: route oral
# [3] = tested on: Rattus norvegicus; experiment: Compound was evaluated for diuretic activity administered orally in female rats measured as milliequivalents of Na+x 100 / cage at 3 mg/kg; format: functional, Urine; details: route oral
# [4] = species on record: Canis familiaris; experiment: volume of urine in dog; format: ADME, organism-based, Canis lupus familiaris; details: in vivo
# [5] = tested on: Rattus norvegicus; experiment: Compound was evaluated for diuretic activity administered orally in female rats measured as milliequivalents of Na+x 100 / cage at 81 mg/kg; format: functional, Urine; details: route oral
# [6] = tested on: Pan troglodytes; experiment: Compound was evaluated for diuretic activity in chimpanzee measured as increase in the number of microequivalents of K+ /min at 5 mg/kg; format: functional, Urine
# [7] = tested on: Pan troglodytes; experiment: Compound was evaluated for diuretic activity in chimpanzee measured as increase in the number of microequivalents of Na+ /min at 5 mg/kg; format: functional, Urine
# [8] = tested on: Pan troglodytes; experiment: Compound was evaluated for diuretic activity in chimpanzee measured as increase in the number of microequivalents of K+ /min at 1 mg/kg; format: functional, Urine
# [9] = tested on: Pan troglodytes; experiment: Compound was evaluated for diuretic activity in chimpanzee measured as increase in the number of microequivalents of Cl- electrolyte/min at 5 mg/kg; format: functional, Urine
# [10] = tested on: Rattus norvegicus; experiment: Compound was evaluated for diuretic activity administered orally in female rats measured as milliequivalents of Na+x 100 / cage at 27 mg/kg; format: functional, Urine; details: route oral
# [11] = tested on: Rattus norvegicus; experiment: Compound was evaluated for diuretic activity administered orally in female rats measured as milliequivalents of Cl-x 100 / cage at 9 mg/kg; format: functional, Urine; details: route oral
# [12] = volume of urine at 3 mg/kg; format: ADME, organism-based; parameters: dose 3 mg/kg; details: in vivo
# [13] = volume of urine at 27 mg/kg; format: ADME, organism-based; parameters: dose 27 mg/kg; details: in vivo
# [14] = tested on: Canis familiaris; experiment: Compound was evaluated for diuretic activity, in female mongrel dogs by measuring volume of urine, after iv administration of 5 mg/kg (control/compound treatment results) Control = 2; format: ADME, organism-based, Canis lupus familiaris; parameters: dose 5 mg/kg, route intravenous; details: dog, in vivo
# [15] = tested on: Rattus norvegicus; experiment: Compound was evaluated for diuretic activity administered orally in female rats measured as milliequivalents of Cl-x 100 / cage at 3 mg/kg; format: functional, Urine; details: route oral
# [16] = tested on: Rattus norvegicus; experiment: Compound was evaluated for diuretic activity administered orally in female rats measured as milliequivalents of Na+x 100 / cage at 9 mg/kg; format: functional, Urine; details: route oral
# [17] = tested on: Pan troglodytes; experiment: Compound was evaluated for diuretic activity in chimpanzee measured as increase in volume of urine at 5 mg/kg; format: functional
# [18] = tested on: Canis familiaris; experiment: Compound was evaluated for diuretic activity, in female mongrel dogs by measuring amount of K+ in urine after iv administration of 5 mg/kg (control/compound treatment results) Control = 11; format: functional, Canis lupus familiaris
# [19] = volume of urine at 81 mg/kg; format: ADME, organism-based; parameters: dose 81 mg/kg; details: in vivo
# [20] = tested on: Rattus norvegicus; experiment: Compound was evaluated for diuretic activity administered orally in female rats measured as milliequivalents of K+x 100 / cage at 81 mg/kg; format: functional, Urine; details: route oral
# [21] = tested on: Canis familiaris; experiment: Compound was evaluated for diuretic activity, administered orally in female mongrel dogs (5 mg/kg) measured as milliequivalents of K; format: functional, Canis lupus familiaris, Urine
# [22] = tested on: Canis familiaris; experiment: Compound was evaluated for diuretic activity, administered orally in female mongrel dogs (5 mg/kg) measured as milliequivalents of Cl-; format: functional, Canis lupus familiaris, Urine
# [23] = tested on: Rattus norvegicus; experiment: Compound was evaluated for diuretic activity administered orally in female rats measured as milliequivalents of K+x 100 / cage at 9 mg/kg; format: functional, Urine; details: route oral
# [24] = tested on: Pan troglodytes; experiment: Compound was evaluated for diuretic activity in chimpanzee measured as clearance of […] and urate after intra venous administration of 5 mg/kg.; format: functional, Urine
# [25] = tested on: Rattus norvegicus; experiment: Compound was evaluated for diuretic activity administered orally in female rats measured as milliequivalents of Cl-x 100 / cage at 81 mg/kg; format: functional, Urine; details: route oral
# [26] = volume of urine at 9 mg/kg; format: ADME, organism-based; parameters: dose 9 mg/kg; details: in vivo
# [27] = tested on: Canis familiaris; experiment: Compound was evaluated for diuretic activity, administered orally in female mongrel dogs (5 mg/kg) measured as milliequivalents of Na; format: functional, Canis lupus familiaris, Urine
# [28] = tested on: Canis familiaris; experiment: Compound was evaluated for diuretic activity, in female mongrel dogs by measuring amount of Cl- in urine after iv administration of 5 mg/kg (control/compound treatment results) Control = 62; format: functional, Canis lupus familiaris
# [29] = tested on: Rattus norvegicus; experiment: Compound was evaluated for diuretic activity administered orally in female rats measured as milliequivalents of K+x 100 / cage at 27 mg/kg; format: functional, Urine; details: route oral
# [30] = tested on: Pan troglodytes; experiment: Compound was evaluated for diuretic activity in chimpanzee measured as increase in volume of urine at 1 mg/kg; format: functional
# [31] = tested on: Rattus norvegicus; experiment: Compound was evaluated for diuretic activity administered orally in female rats measured as milliequivalents of Cl-+x 100 / cage at 27 mg/kg; format: functional, Urine; details: route oral
# [32] = tested on: Canis familiaris; experiment: Compound was evaluated for diuretic activity, in female mongrel dogs by measuring amount of Na+ in urine after iv administration of 5 mg/kg (control/compound treatment results) Control = 107; format: functional, Canis lupus familiaris
# [33] = tested on: Pan troglodytes; experiment: Compound was evaluated for diuretic activity in chimpanzee measured as increase in the number of microequivalents of Na+ /min at 1 mg/kg; format: functional, Urine
# [34] = tested on: Pan troglodytes; experiment: Compound was evaluated for diuretic activity in chimpanzee measured as increase in the number of microequivalents of Cl- electrolyte/min at 1 mg/kg; format: functional, Urine
compound,measurement,setting,value
CC1(c2ccccc2)Cc2cc(OCC(=O)O)c(Cl)c(Cl)c2C1=O (centres undefined) [INDACRINONE],Delta C urate / delta C insulin,[1],0.332
same,Activity,[2],32
same,Activity,[3],86
same,Urine volume,[4],267 mL
same,Activity,[5],189
same,Increase,[6],53
same,Increase,[7],409
same,Increase,[8],171
same,Increase,[9],554
same,Activity,[10],129
same,Activity,[11],163
same,Urine volume,[12],28 mL
same,Urine volume,[13],31 mL
same,Urine volume,[14],8 mL/min
same,Activity,[15],85
same,Activity,[16],97
same,Increase in volume,[17],3.6 mL/min
same,Activity,[18],62 u equiv min-1
same,Urine volume,[19],35 mL
same,Activity,[20],85
same,Activity,[21],2.2
same,Activity,[22],26
same,PActivity,[23],50
same,Delta C urate / delta C insulin,[24],0.55
same,Activity,[25],303
same,Urine volume,[26],29 mL
same,Activity,[27],12
same,Activity,[28],1010 u equiv min-1
same,Activity,[29],61
same,Increase in volume,[30],14.8 mL/min
same,Activity,[31],223
same,Activity,[32],920 u equiv min-1
same,Increase,[33],2383
same,Increase,[34],2624
